Assay results published in patent publication US20250026741A1, “INHIBITORS OF THE ONCOGENIC SHP2 PHOSPHATASE AND USES THEREOF” (Sanford Burnham Prebys Medical Discovery Institute, priority 2021, published 2025).

Columns and labels:
[1] = system: MLL-AF10 leukemia cells expressing E76K mutant SHP2; assay: Cell viability assay, MLL-AF10 cells expressing E76K mutant SHP2; format: cell-based, mouse; conditions: Mus musculus
Description: Cell viability assays of SHP099, #01, and #02 against mouse MLL-AF10 leukemia cells were conducted. Two MLL-AF10 cell lines were employed, one expressing wild-type SHP2, and the other expressing E76K mutant SHP2.

[2] = system: MOLM-13-Cas9-mCherry cells with SHP2 KO; assay: SHP2 CRISPR-Cas9 knockout inhibitor selectivity assay (cell viability); format: cell-based; conditions: MOLM-13-Cas9-mCherry SHP2 KO cells, 72 h
Description: Finally, we evaluated the selectivity of our top two compounds, #01 and #02, on MOLM-13 AML cells in which SHP2 was depleted using CRISPR-Cas9 knock-out (KO). High-efficiency Cas9-editing MOLM-13 cells were generated by transducingMOLM-13 cells with a Cas9 lentiviral construct. Stable clones were tested for editing efficiency by performing TIDE analysis (45), and these MOLM13-Cas9 cells were transduced with a lentiviral construct containing an AAVS1 single guide RNA (sgRNA) and an mCherry reporter for bulk-sorting of cells with successful AAVS1 editing. SHP2 KO was achieved by transducing MOLM-13-Cas9-mCherry cells with a lentivirus containing SHP2 dual sgRNAs, resulting in ˜80% reduction of SHP2 protein levels (FIG. 3G). #01, #02, and the SHP2 allosteric inhibitor SHP099 were tested in parallel on regular MOLM-13 cells (expressing WT SHP2) and MOLM-13-Cas9-mCherry cells with SHP2 KO. Cells were treated with inhibitors at various concentrations (ranging from […] to 58 nM) or vehicle control (DMSO) for 72 h, before cell viability was assessed.
High-efficiency Cas9-editing MOLM-13 cells were generated by transducing MOLM-13 cells with the pLenti-Cas9-blasticidin construct (Addgene plasmid #52962) and selecting single stable clones using flow-sorting. Clones were then tested for editing efficiency by performing TIDE analysis (45). These MOLM13-Cas9 cells were then transduced with a lentiviral construct containing an AAVS sgRNA and an mCherry reporter out of frame and downstream of an AAVS sgRNA targeting site. […]
For SHP2 KO, dual sgRNAs targeting SHP2 were cloned in the pLentiGuide puro vector (Addgene plasmid #52963) using a published protocol (50). […] SHP2 KO was evaluated by immunoblotting. […] For SHP2 KO, MOLM-13-Cas9-mCherry cells were seeded in nontreated 6-well-plates ([…] in 2.5 mL), with cell numbers determined by trypan blue using the Countess Cell counter (Thermo Scientific). […] Cell viability was assessed using the ATP-depletion assay CellTiter-Glo® (Promega) as described above, and data were analyzed using GraphPad Prism software.

[3] = system: p-ERK1/2 in MOLM-13 AML cells; assay: Phospho-ERK1/2 immunoblot analysis, MOLM-13; format: cell-based; conditions: #02 3, 10, 30 μM, RMC-4550 1 μM
Description: Because SHP2 activity is critical for ERK activation, we used phospho-ERK1/2 (p-ERK1/2) as a more direct readout of SHP2 inhibitor efficacy. […] However, a greater effect of #02 was observed after 24 h treatment. […] This p-ERK rebound in MOLM-13 cells treated with RMC-4550 is reminiscent of previously reported data from human hepatoma Hep3B cells treated with SHP099.
Total protein extracts were prepared in modified RIPA lysis buffer (25 mM Tris-HCl, pH 7.4, 10% glycerol, 0.2% Triton™ X-100, 150 mM NaCl, 2 mM Na3VO4, 1 mM EDTA) containing a protease inhibitor cocktail (Roche Applied Science, Indianapolis, IN). Equal amounts of protein were separated on 4-12% (p-ERK1/2 blots) or 4-20% (SHP2 blots) Bis-Tris gels by SDS-PAGE and transferred to nitrocellulose (p-ERK1/2 blots) or 0.2 μm PVDF (SHP2 blots) membranes. Membranes were blocked in 5% dry milk (Bio-Rad, Hercules, CA) in TBS-Tween 20 (0.1% vol/vol; TBS-T) for 1 h at room temperature. Protein-bound membranes were incubated with indicated primary antibody overnight at 4° C. After washing three times with TBS-T, membranes were incubated for 1 h with horseradish peroxidase-conjugated secondary antibody, then visualized by an ECL Prime detection system (GE Healthcare). Immunoblotting experiments were carried out at least three times and representative images are shown. Densitometric quantitation of immunoblots was performed using Image Studio Lite Software. Changes of phosphorylated ERK1/2 to total ERK1/2 rations are expressed as percentage of the vehicle-treated controls. The following antibodies were used: Phospho-Erk1/2 Ab, Cell Signaling, #9101S; total Erk1/2 Ab, Cell Signaling, #9102S; SHP2 Ab, Bethyl, A301-544A, lot #1; GAPDH (14C10) mAb, Cell Signaling, #2118S, lot #14.

SHP2cat = SHP2cat (Homo sapiens (Human), UniProt Q06124); assay: Mass spectrometry test for inhibitor:protein adducts; conditions: SHP2cat 5 μM, inhibitor 100 μM, 1, 5, 20, 60 min, trypsin proteolysis, MS
Description: Additionally, we used mass spectrometry to test whether inhibitor: protein adducts are formed. Specifically, we incubated SHP2cat (5 μM) with #02 (100 μM) in assay buffer for various times (1, 5, 20, and 60 min) before trypsin proteolysis and subsequent mass spectrometry analysis.

Chain of SHP2cat (Q06124 248-527): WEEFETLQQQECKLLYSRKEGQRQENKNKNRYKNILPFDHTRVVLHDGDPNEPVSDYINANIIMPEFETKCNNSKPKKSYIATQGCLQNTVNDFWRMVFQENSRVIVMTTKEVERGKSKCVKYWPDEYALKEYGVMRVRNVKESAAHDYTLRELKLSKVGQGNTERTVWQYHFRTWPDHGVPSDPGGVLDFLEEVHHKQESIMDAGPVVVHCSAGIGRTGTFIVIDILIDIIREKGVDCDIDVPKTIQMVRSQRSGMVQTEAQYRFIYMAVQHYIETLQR

IC50 [1] [µM]	SMILES	effect on viability of SHP2 KO cells [2]	ERK1/2 activation (p-ERK1/2 levels) ([3]; MOLM-13, 3 h treatment)	ERK1/2 activation (p-ERK1/2 levels) ([3]; MOLM-13, 24 h treatment)	inhibitor:protein adduct formation (SHP2cat)
2	Nc1ccc(NC(=O)c2cc(-c3ccc(/C=C4\Sc5ccccc5C4=O)o3)ccc2O)cc1 [#01, (Z)—N-(4-Aminophenyl)-2-hydroxy-5-(5-((3-oxobenzo[b]thiophen-2(3H)-ylidene)methyl)furan-2-yl)benzamide]	either no effect, or a greatly reduced effect			
3	O=C(Nc1ccccc1)c1cc(-c2ccc(/C=C3\Sc4ccccc4C3=O)o2)ccc1O [#02, (Z)-2-hydroxy-5-(5-((3-oxobenzo[b]thiophen-2(3H)-ylidene)methyl)furan-2-yl)-N-phenylbenzamide]	either no effect, or a greatly reduced effect	dose-dependently inhibits ERK1/2 activation	dose-dependently inhibits ERK1/2 activation	no adduct formation with the inhibitor was found
